Source: PMC11157048 (Frontiers in Pharmacology, 2024)
Like-named read-outs stand apart in the source and are kept apart here.

Key:
[1] = system: rat liver microsomes (RLM); experiment: Inhibition of aumolertinib metabolism in rat liver microsomes (screen, IC50, Ki)
Description: (§1) When screening for inhibitors, the amount of RLM in the system and the reaction time were optimized and set to 0.5 mg/mL and 30 min, respectively. The concentration of the inhibitor was set at 100 μM. […] The above mixture was pre-incubated at 37 °C for 5 min, and then 1 mM NADPH was added to initiate the reaction, and incubated for another 30 min. Afterwards, 400 μL of cold acetonitrile and 20 μL of diazepam (500 ng/mL) were added to the system to stop the reaction. After vortexing for 2 min, the mixture is centrifuged at 16,200 g for 10 min and the supernatant is subjected to analysis by UPLC-MS/MS for the detection of analytes.

[2] = system: aumolertinib metabolism in rat liver microsomes; experiment: in vitro; details: probe aumolertinib 25 μM
Description: as §1

CYP3A4.1 = CYP3A4.1 (Homo sapiens, UniProt P08684)
[3] = system: aumolertinib metabolism in human liver microsomes; experiment: Inhibition of aumolertinib metabolism in human liver microsomes (IC50, Ki); assay type: in vitro ADME; details: human, human liver microsomes, probe aumolertinib 20 μM
Description: as §1

[4] = system: human liver microsomes (HLM); experiment: as above; assay type: in vitro ADME; details: HLM
Description: as §1

[5] = Pharmacokinetics in AAV8-CYP3A4*1 mice
[6] = rat, in vivo, po, 11 mg/kg
[7] = mouse, in vivo, po
[8] = design: method as in Zhou et al., 2021; Liu et al., 2022a; Liu et al., 2022b; details: ref Zhou et al., 2021, Liu et al., 2022a, 2022b; cited from earlier work
[9] = aumolertinib 16.5 mg/kg oral alone (Aum)
[10] = carvedilol 7.5 mg/kg 0.5 h before aumolertinib 16.5 mg/kg oral (Car+Aum)

Chain of CYP3A4.1 (P08684 whole entry): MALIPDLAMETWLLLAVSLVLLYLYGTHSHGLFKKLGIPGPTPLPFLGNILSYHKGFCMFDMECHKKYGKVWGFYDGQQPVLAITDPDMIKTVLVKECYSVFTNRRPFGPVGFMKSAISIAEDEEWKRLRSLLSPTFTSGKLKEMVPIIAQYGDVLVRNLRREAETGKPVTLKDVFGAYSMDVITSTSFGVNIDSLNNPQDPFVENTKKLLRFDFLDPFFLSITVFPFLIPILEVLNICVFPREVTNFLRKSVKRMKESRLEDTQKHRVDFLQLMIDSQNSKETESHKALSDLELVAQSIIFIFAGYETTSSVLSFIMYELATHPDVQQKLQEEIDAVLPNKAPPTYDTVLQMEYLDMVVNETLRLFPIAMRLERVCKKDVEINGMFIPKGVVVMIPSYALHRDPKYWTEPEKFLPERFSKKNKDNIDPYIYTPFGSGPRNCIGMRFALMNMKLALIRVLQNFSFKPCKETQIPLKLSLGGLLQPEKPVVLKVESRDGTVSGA

COc1ccccc1OCCNCC(O)COc1cccc2[nH]c3ccccc3c12 (stereo not shown) [Carvedilol]
inhibition mechanism [1]: non-competitive and competitive mixed | Ki ([1]; Lineweaver-Burk secondary plot): 16.7 µM | αKi ([1]; Lineweaver-Burk secondary plot): 51.66 µM | IC50 at 30 min [2]: 27.3 ± 2.52 µM | inhibition mechanism (CYP3A4.1): competitively inhibited | IC50 at 30 min [3]: 12.7 ± 0.59 µM | inhibition mechanism [4]: non-competitive and competitive mixed | Ki ([4]; Lineweaver-Burk secondary plot): 8.81 µM | αKi ([4]; Lineweaver-Burk secondary plot): 47.76 µM

C=CC(=O)Nc1cc(Nc2nccc(-c3cn(C4CC4)c4ccccc34)n2)c(OC)cc1N(C)CCNC [HAS-719]
AUC(0-t) [5, 9]: 905.88 ± 375.90 ng·h/mL | AUC(0-∞) [5, 9]: 908.18 ± 374.69 ng·h/mL | CLz/F [5, 9]: 335 ± 128 mL/min/kg | Cmax [5, 9]: 47.06 ± 20.43 ng/mL | Tmax [5, 9]: 10.71 ± 9.53 h | Vz/F [5, 9]: 113.97 ± 104.36 L/kg | t1/2z [5, 9]: 3.80 ± 2.94 h | AUC(0-t) [5, 10]: 663.56 ± 198.24 ng·h/mL | AUC(0-∞) [5, 10]: 669.24 ± 196.18 ng·h/mL | CLz/F [5, 10]: 423.8 ± 103 mL/min/kg | Cmax [5, 10]: 34.97 ± 15.02 ng/mL | Tmax [5, 10]: 17.86 ± 10.53 h | Vz/F [5, 10]: 203.88 ± 121.79 L/kg | t1/2z [5, 10]: 5.34 ± 2.61 h | CLz/F [6]: 5750.5 ± 2617.5 mL/min/kg | Vz/F [6]: 1,913.68 ± 1,058.91 L/kg | t1/2z [6]: 3.69 ± 0.57 h | AUC(0-t) [7]: 429.91 ± 178.00 ng·h/mL | AUC(0-∞) [7]: 572.38 ± 354.11 ng·h/mL | CLz/F [7]: 586.7 ± 249.8 mL/min/kg | Cmax [7]: 23.01 ± 11.89 ng/mL | Tmax [7]: 14.29 ± 13.44 h | Vz/F [7]: 773.46±1,086.45 L/kg | t1/2z [7]: 14.62 ± 18.23 h | plasma exposure relative to the parent drug [8]: 40%

CCCc1nc2c(C)cc(-c3nc4ccccc4n3C)cc2n1Cc1ccc(-c2ccccc2C(=O)O)cc1 [Telmisartan]
inhibition mechanism [1]: mixed (non-competitive and uncompetitive) | α [1]: 0.54 | α ([1]; listed as telmisartan): < 1 | IC50 at 30 min [2]: 12.8 ± 0.18 µM | α [4]: 0.59 | α ([4]; listed as telmisartan): < 1
